Assay: Solubility in toluene
Type: physicochemical
Settings: solvent toluene
Text: As described below, an aromatic hydrocarbon is preferred as a solvent contained in a composition for charge-transporting material. Toluene is a typical aromatic hydrocarbon and is used as an index of the solubility of the organic compound (charge-transporting material) in the present invention.

Row | Structure (SMILES) | dissolved in toluene in an amount of
1 | O=c1n(-c2ccc(N(c3ccccc3)c3ccc(-c4ccccc4)cc3)cc2)c2ccccc2n1-c1ccc(N(c2ccccc2)c2ccc(-c3ccccc3)cc2)cc1 [Target Compound 5] | ≥ 5.0 percent by weight
2 | O=c1n(-c2cccc(-n3c4ccccc4c4ccccc43)c2)c2cccnc2n1-c1cccc(-n2c3ccccc3c3ccccc32)c1 [Target Compound 16] | ≥ 3 percent by weight
3 | O=c1n(-c2cccc(-n3c4ccccc4c4ccncc43)c2)c2ccccc2n1-c1cccc(-n2c3ccccc3c3ccncc32)c1 [Target Compound 12] | ≥ 3 percent by weight
4 | O=c1n(-c2cccc(-c3ccccc3)c2)c2ccccc2n1-c1cccc(-c2ccccc2)c1 [Target Compound 6] | ≥ 5.0 percent by weight
5 | O=c1n(-c2cccc(-n3c4ccccc4c4ccccc43)c2)c2ccccc2n1-c1cccc(-n2c3ccccc3c3ccccc32)c1 [Target Compound 4] | ≥ 3 percent by weight

— patent publication US8022617B2, “Organic compound, charge-transporting material, composition for charge-transporting material and organic electroluminescent device” (Mitsubishi Chemical Corporation, priority 2005, dated 2011)
